Data reported in paper PMC10135964, “One Scaffold, Two Conformations: The Ring-Flip of the Messenger InsP8 Occurs under Cytosolic Conditions” (Biomolecules, 2023).
Read-outs that look alike come from different tables or passages of the source.

Columns and labels:
[1] = parameters: method as in doi:10.1351/pac199163071015; details: 150 mM NaCl, 37 °C; cited from earlier work
[2] = parameters: method as in PMID 27460418, PMID 15708805, doi:10.1016/j.molstruc.2007.03.035; details: 31P NMR (22 °C); equation as printed refers to InsP8 complexes; cited from earlier work
[3] = 1H,13C BIRD-HMQC NMR quantification of axial vs. equatorial conformer; assay type: physicochemical; details: pH* 8.5, 5 equiv. Ca2+, 130 mM KCl, 10 mM NaCl
[4] = as above; assay type: physicochemical; details: 50 µM, 130 mM KCl, 10 mM NaCl, 4 °C
Procedure: Samples for HMQC-NMR studies contained 50 µM ^13C6-labeled InsPs (InsP6/5PP-InsP5/InsP8), 2 mM bis-tris-propane, 130 mM KCl, 10 mM NaCl and 0/50/250 µM MgCl2 in D2O.
BIRD-HMQC NMR spectra were recorded at 277 K and 600 MHz (^1H frequency) on a Bruker AV-III NMR spectrometer (Bruker Biospin, Rheinstetten, Germany) using cryogenically cooled 5 mm QCI-triple resonance probe equipped with one-axis self-shielded gradients. The spectrometer was operated using topspin 3.5 pl6 software. Instrument temperature was calibrated against […] according to Findeisen et al.. Acquisition parameters were SW(^13C): 60–90 ppm, NS: 128, TD(^13C): 64.
BIRD-HMQC spectra were recorded at 277 K as described above, with samples containing 200 µM InsPs, 130 mM KCl, 10 mM NaCl, 2mM BTP in D2O. pH was set to pH* 9.5 for InsP6, pH* 8.8 for 5PP-InsP5 and pH* 8.5 for InsP8 (pH = 0.929 × pH* + 0.42 [35]). NOESY-HMQC spectra of the same samples were subsequently recorded using mixing times of 80 ms for InsP6 and 5PP-InsP5 and 200 ms for InsP8. Conformational exchange on the time-scale of the experiment created cross-peaks between corresponding peaks in different conformations, which allowed us to assign each peak of the equatorial conformer to its axial counterpart.

[5] = parameters: method as in PMID 27460418, PMID 15708805, doi:10.1016/j.molstruc.2007.03.035; details: Potentiometry (37 °C); equation as printed refers to InsP8 complexes; cited from earlier work
[6] = pH* 9.5, without divalent cations

**Q.** With `Nc1ncnc2c1ncn2[C@@H]1O[C@H](COP(=O)(O)OP(=O)(O)OP(=O)(O)O)[C@@H](O)[C@H]1O` [ATP] as the compound, how does the “log(K), Mg^2+ + ATP^4− → [MgATP]^2−” value [1] read?
**A.** Its value is 4.34.

**Q.** What about the “log(K), Mg^2+ + HATP^3− → [Mg(HATP)]^−” value [1] of the same compound?
**A.** Its value is 2.39.

**Q.** With `O=P(O)(O)CP(=O)(O)O[C@H]1[C@H](OP(=O)(O)O)[C@@H](OP(=O)(O)O)[C@@H](OP(=O)(O)O)[C@@H](OP(=O)(O)O)[C@@H]1OP(=O)(O)O` [5PCP-InsP5] as the compound, how does the “log K, 2 K^+ + H5L^9− ↔ [K2(H5L)]^7−” value [2] read?
**A.** The value was 2.79(7).

**Q.** And the “log K, 3 K^+ + H4L^10− ↔ [K3(H4L)]^7−” value [2]?
**A.** The value was 3.94(4).

**Q.** What about the “log K, 4 K^+ + H2L^12− ↔ [K4(H2L)]^8−” value [2] of the same compound?
**A.** The value was 4.61(3).

**Q.** What about the “log K, 4 K^+ + H3L^11− ↔ [K4(H3L)]^7−” value [2] of the same compound?
**A.** The value was 4.50(5).

**Q.** And the “log K, 5 K^+ + HL^13− ↔ [K5(HL)]^8−” value [2]?
**A.** The value was 6.57(3).

**Q.** What about the “log K, L^14− + 2 H^+ ↔ H2L^12−” value [2] of the same compound?
**A.** Its value is 22.42(2).

**Q.** What about the “log K, L^14− + 3 H^+ ↔ H3L^11−” value [2] of the same compound?
**A.** Its value is 32.26(2).

**Q.** What about the “log K, L^14− + 4 H^+ ↔ H4L^10−” value [2] of the same compound?
**A.** The value was 40.94(2).

**Q.** And the “log K, L^14− + 5 H^+ ↔ H5L^9−” value [2]?
**A.** Its value is 47.67(2).

**Q.** What about the “log K, L^14− + 6 H^+ ↔ H6L^8−” value [2] of the same compound?
**A.** Its value is 51.93(2).

**Q.** What about the “log K, L^14− + 7 H^+ ↔ H7L^7−” value [2] of the same compound?
**A.** The value was 55.64(2).

**Q.** What about the “log K, L^14− + H^+ ↔ HL^13−” value [2] of the same compound?
**A.** The value was 11.48(1).

**Q.** What about the “log K, Mg^2+ + H2L^12− + 3 K^+ ↔ [MgK3(H2L)]^7−” value [2] of the same compound?
**A.** The value was 9.75(7).

**Q.** And the “log K, Mg^2+ + H4L^10− + 2 K^+ ↔ [MgK2(H4L)]^6−” value [2]?
**A.** The value was 6.96(7).

**Q.** What about the “log K, Mg^2+ + H5L^9− + K^+ ↔ [MgK(H5L)]^6−” value [2] of the same compound?
**A.** Its value is 5.26(7).

**Q.** What about the “log K, Mg^2+ + H6L^8− ↔ [Mg(H6L)]^6−” value [2] of the same compound?
**A.** The value was 4.71(7).

**Q.** And the “log K, Mg^2+ + HL^13− + 4 K^+ ↔ [MgK4(HL)]^7−” value [2]?
**A.** The value was 11.64(5).

**Q.** With `O=P(O)(O)O[C@H]1[C@@H](OP(=O)(O)O)[C@H](OP(=O)(O)O)[C@@H](OP(=O)(O)OP(=O)(O)O)[C@H](OP(=O)(O)O)[C@H]1OP(=O)(O)O` [5PP-InsP5] as the compound, how does the “proportion in axial conformation” value [3] read?
**A.** Its value is “About 60%”.

**Q.** And the “proportion in axial conformation” value ([4]; pH* 8.5 (=pH 8.3) and higher, 5 equiv. Mg2+)?
**A.** The value was “exclusively the axial conformation”.

**Q.** And the “proportion in axial conformation” value ([4]; pH* 8.5, without divalent cations)?
**A.** Its value is “about 10%”.

**Q.** What about the “proportion in axial conformation” value [4, 6] of the same compound?
**A.** Its value is “only detected in the axial conformation”.

**Q.** Which results are given for `O=P(O)(O)O[C@H]1[C@H](OP(=O)(O)O)[C@@H](OP(=O)(O)O)[C@H](OP(=O)(O)O)[C@@H](OP(=O)(O)O)[C@H]1OP(=O)(O)O` [InsP6]?
**A.** log K, 3 K^+ + H4L^10− ↔ [K3(H4L)]^7− [5]: 3.36(5); log K, 4 K^+ + H3L^11− ↔ [K4(H3L)]^7− [5]: 5.42(5); log K, L^14− + 2 H^+ ↔ H2L^12− [5]: 21.3(1); log K, L^14− + 3 H^+ ↔ H3L^11− [5]: 31.63(6); log K, L^14− + 4 H^+ ↔ H4L^10− [5]: 40.42(6); log K, L^14− + 5 H^+ ↔ H5L^9− [5]: 47.32(6); log K, L^14− + 6 H^+ ↔ H6L^8− [5]: 53.04(7); log K, L^14− + 7 H^+ ↔ H7L^7− [5]: 56.14(9); log K, L^14− + H^+ ↔ HL^13− [5]: 10.8(1); proportion in axial conformation ([4]; pH* 9.0, 1 equiv. Mg2+): about 30%; proportion in axial conformation ([4]; pH* 9.0, without divalent cations): traces; proportion in axial conformation ([4]; pH* 9.5, 1 equiv. Mg2+): ~90%; proportion in axial conformation [4, 6]: less than half
